Test results from patent US10718770B2, “Methods for screening compounds for treating or preventing a viral infection or a virus-related condition” (ABIVAX, priority 2015, dated 2020).

Key:
[1] = molecular target: T1, Recombinant human CBC (Homo sapiens, UniProt P52298+Q09161); test: Gel-mobility shift assay: binding of capped RNA to the CBC complex; settings: native gel; Compound 1 5-50 μM, Compound 1-N-glucuronide 5-100 μM, m7GpppG 12 mM
T1 construct: made in house
T1 sequence (P52298 1-156): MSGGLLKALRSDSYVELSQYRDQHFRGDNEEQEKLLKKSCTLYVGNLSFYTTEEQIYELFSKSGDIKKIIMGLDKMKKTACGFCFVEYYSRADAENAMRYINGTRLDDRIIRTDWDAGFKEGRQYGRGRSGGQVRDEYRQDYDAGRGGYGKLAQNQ
T1 sequence (Q09161 1-790): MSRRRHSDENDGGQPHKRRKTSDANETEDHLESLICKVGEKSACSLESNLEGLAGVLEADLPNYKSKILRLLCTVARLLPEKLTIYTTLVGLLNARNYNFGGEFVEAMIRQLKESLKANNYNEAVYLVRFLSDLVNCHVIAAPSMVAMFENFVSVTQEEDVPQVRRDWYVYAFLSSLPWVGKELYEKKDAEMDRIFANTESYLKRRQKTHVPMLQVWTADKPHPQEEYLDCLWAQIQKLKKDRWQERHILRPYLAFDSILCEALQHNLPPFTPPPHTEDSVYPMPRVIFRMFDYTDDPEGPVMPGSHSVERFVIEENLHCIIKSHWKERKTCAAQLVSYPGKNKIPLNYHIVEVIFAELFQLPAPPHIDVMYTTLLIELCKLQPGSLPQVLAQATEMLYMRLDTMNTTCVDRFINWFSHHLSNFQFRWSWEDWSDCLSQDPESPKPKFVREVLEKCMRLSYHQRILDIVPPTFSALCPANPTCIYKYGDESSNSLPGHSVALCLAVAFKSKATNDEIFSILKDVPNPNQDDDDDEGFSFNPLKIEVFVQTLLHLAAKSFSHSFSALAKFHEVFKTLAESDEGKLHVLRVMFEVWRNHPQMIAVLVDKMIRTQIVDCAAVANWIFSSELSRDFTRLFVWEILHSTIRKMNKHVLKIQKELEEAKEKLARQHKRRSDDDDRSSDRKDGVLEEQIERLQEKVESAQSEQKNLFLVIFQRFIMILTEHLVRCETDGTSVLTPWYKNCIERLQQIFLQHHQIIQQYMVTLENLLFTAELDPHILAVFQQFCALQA
Experimental: FIG. 4. […] Recombinant human CBC was incubated with a capped RNA substrate and analyzed by native gel electrophoresis in order to resolve the different RNA and RNA-protein complexes: free RNA (lane 1), and CBC-RNA complexes (lanes 2-10) in the presence of 12 mM of m7GppG (lanes 10) or 5 μM, 10 μM or 50 μM of Compound 1 (lanes 2-4, respectively) or 5 μM, 10 μM, 50 μM or 100 μM of Compound 1-N-glucuronide ([…], respectively).
Gel-mobility shift assay in the presence of a m(7)GpppG cap analogue has been established according to the protocol described in Mazza et al. (Large-scale induced fit recognition of an m(7)GpppG cap analogue by the human nuclear cap-binding complex. EMBO J. 21, 5548-5557 (2002)).
Recombinant human CBC was incubated with a capped RNA substrate and analyzed by native gel electrophoresis in order to resolve the different RNA and RNA-protein complexes according to Mazza et al. (Large-scale induced fit recognition of an m(7)GpppG cap analogue by the human nuclear cap-binding complex. EMBO J. 21, 5548-5557 (2002).

[2] = molecular target: T2, CBC complex (CBP20 and CBP80) (Homo sapiens, UniProt P52298+Q09161); test: UV crosslinking of purified recombinant CBP20 and CBP80 (CBC complex), SDS-PAGE / Western blot; assay type: binding; settings: purified recombinant CBP20 and CBP80, after UV irradiation
T2 construct: made in house
T2 sequence (P52298 1-156): T1 sequence (P52298 1-156)
T2 sequence (Q09161 1-790): T1 sequence (Q09161 1-790)
Experimental: FIG. 2. Compound 1 interacts with the CBC complex. Purified recombinant CBP20 and CBP80 proteins were incubated with increasing concentrations of Compound 1 (left panel) or Compound 1-N-glucuronide (right panel, Gluc) and treated for 30 minutes with UV light. […] Left panel: from left to right, incubation with 0.1 (lane 1), 1 (lane 2), 10 (lane 3) and 50 μM (lane 4) of Compound 1. Right panel: from left to right, incubation with 1 (lane 1), 10 (lane 2), 50 (lane 3), 100 μM (lane 4) and 200 μM (lane 5) of Compound 1-N-glucuronide.
FIG. 3. Compound 1 promotes the interaction of CBP20 with CBP80. A) Purified recombinant CBP20 and CBP80 proteins were incubated with the indicated concentrations of Compound 1-N-glucuronide and they were either untreated (lanes 1-3), treated during 15 min (lanes 4-6) or 30 min (lanes 7-9) with UV light. Proteins were analyzed by SDS-PAGE and stained with Coomassie blue. […] B) Recombinant human CBC was incubated with Compound 1-N-glucuronide and treated with UV for 15 min. After crosslinking the proteins were resolved in SDS-PAGE and stained with Coomassie blue (left panel). Stained proteins (Band 4, Band 5 and Band 7) were digested with trypsin and analysed by mass spectrometry. […]

[3] = molecular target: SR protein splicing factor SRSF1 (Homo sapiens, UniProt Q07955); settings: cited from earlier work
Sequence of SR protein splicing factor SRSF1 (Q07955 whole entry): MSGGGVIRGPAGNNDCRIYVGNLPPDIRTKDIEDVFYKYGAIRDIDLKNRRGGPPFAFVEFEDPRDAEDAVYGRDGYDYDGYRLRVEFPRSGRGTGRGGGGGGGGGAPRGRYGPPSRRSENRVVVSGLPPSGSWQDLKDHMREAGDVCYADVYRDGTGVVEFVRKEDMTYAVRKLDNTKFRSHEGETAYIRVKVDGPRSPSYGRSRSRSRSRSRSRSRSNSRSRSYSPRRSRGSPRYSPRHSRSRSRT

Structure (SMILES)	competition for binding of capped RNA to the CBC complex [1]	covalent bridging (UV crosslinking) between CBP20 and CBP80 [2]	production of key viral proteins ([3]; HIV-1)	splicing enhancer activity of SRSF1 [3]
O=C(O)[C@H]1O[C@@H](N(c2ccc(OC(F)(F)F)cc2)c2ccc3cccc(Cl)c3n2)[C@H](O)[C@@H](O)[C@@H]1O [Compound 1-N-glucuronide, 8-chloro-N-glucuronide-N-(4-(trifluoromethoxy)phenyl)quinolin-2-amine]	neither Compound 1 nor Compound 1-N-glucuronide interfere	promote UV crosslinking of CBP20 and CBP80	–	–
Cc1c2ccnc(Cl)c2cc2c3cn(C)ccc-3nc12 [IDC16, 10-chloro-2,6-dimethyl-2H-pyrido[3′,4′:4,5]pyrrolo[2,3-g]isoquinoline]	–	–	suppresses the production of key viral proteins	interfere with splicing enhancer activity
Cn1c[n+]([C@@H]2O[C@H](COP(=O)(O)OP(=O)([O-])OP(=O)(O)OC[C@H]3O[C@@H](n4cnc5c(=O)[nH]c(N)nc54)[C@H](O)[C@@H]3O)[C@@H](O)[C@H]2O)c2nc(N)[nH]c(=O)c21 [m^7GpppG, reference compound]	competed	–	–	–
